Reference: patent US12030904B2 (priority 2020, dated 2024)
Read-outs that look alike come from different tables or passages of the source.

What was measured:
MT4 cytotoxicity (CC50) = settings: human, MT4 cells
SARS-CoV-2 = assay: microbe, parasite or virus in culture; type: cell-based; settings: Severe acute respiratory syndrome coronavirus 2, read-out: SARS EC50
[1] = system: Recombinant Respiratory Syncytial virus strain A2 containing the firefly luciferase reporter (RSV-Fluc); assay: microbe, parasite or virus in culture; type: cell-based; settings: human respiratory syncytial virus, NHBE
[2] = 72 h, read-out: RSV-Fluc EC50 (NHBE), NHBE cells, three days, Table 2

Row | Compound | CC50 (MT4 cytotoxicity (CC50); MT4 CC50, Table 4) | EC50 (SARS-CoV-2) | EC50 ([1]; read-out: RSV EC50, Table 4) | CC50 (MT4 cytotoxicity (CC50); MT4 CC50, Table 2a) | EC50 [1, 2] | EC50 ([1]; read-out: RSV EC50, Table 2a)
1 | CCCCCCCCCCCCCCCOC[C@H](COP(=O)(O)OC[C@H]1O[C@@](C#N)(c2ccc3c(N)ncnn23)[C@H](O)[C@@H]1O)OCc1cc(F)cc(C#N)c1 [Example 118, [(2R,3S,4R,5R)-5-(4-Aminopyrrolo[2,1-f][1,2,4]triazin-7-yl)-5-cyano-3,4-dihydroxy-tetrahydrofuran-2-yl]methyl [(2R)-2-[(3-cyano-5-fluoro-phenyl)methoxy]-3-pentadecoxy-propyl] hydrogen phosphate] | 0.291 µM | 0.12 µM | 0.037 µM |  |  | 
2 | CCCCCCCCCCCCCCCCCCOC[C@H](COP(=O)(O)OC[C@H]1O[C@@](C#N)(c2ccc3c(N)ncnn23)[C@H](O)[C@@H]1O)OCC(C)C [Example 46, ((2R,3S,4R,5R)-5-(4-aminopyrrolo[2,1-f][1,2,4]triazin-7-yl)-5-cyano-3,4-dihydroxytetrahydrofuran-2-yl)methyl ((R)-2-isobutoxy-3-(octadecyloxy)propyl) hydrogen phosphate] |  | 2.47 µM |  | 50 µM | 1.1 µM | 1.09 µM
3 | CCCCCCCCCCCCCCCCCCOC[C@H](COP(=O)(O)OC[C@H]1O[C@@](C#N)(c2ccc3c(N)ncnn23)[C@H](O)[C@@H]1O)OCc1ccc(C(F)F)cc1 [Example 33, ((2R,3S,4R,5R)-5-(4-aminopyrrolo[2,1-f][1,2,4]triazin-7-yl)-5-cyano-3,4-dihydroxytetrahydrofuran-2-yl)methyl ((R)-2-((4-(difluoromethyl)benzyl)oxy)-3-(octadecyloxy)propyl) hydrogen phosphate] |  | 3.02 µM |  | 8.85 µM |  | 0.077 µM
4 | CCCCCCCCCCCCCCCCOC[C@H](COP(=O)(O)OC[C@H]1O[C@@](C#N)(c2ccc3c(N)ncnn23)[C@H](O)[C@@H]1O)OCc1ccc(C#N)cc1F [Example 112, [(2R,3S,4R,5R)-5-(4-Aminopyrrolo[2,1-f][1,2,4]triazin-7-yl)-5-cyano-3,4-dihydroxy-tetrahydrofuran-2-yl]methyl [(2R)-2-[(4-cyano-2-fluoro-phenyl)methoxy]-3-hexadecoxy-propyl] hydrogen phosphate] | 1.94 µM | 0.13 µM | 0.063 µM |  |  | 
5 | CCCCCCCCCCCCCCCCCCOC[C@H](COP(=O)(O)OC[C@H]1O[C@@](C#N)(c2ccc3c(N)ncnn23)[C@H](O)[C@@H]1O)OCc1ccc(C#N)cc1C(F)(F)F [Example 105, [(2R,3S,4R,5R)-5-(4-Aminopyrrolo[2,1-f][1,2,4]triazin-7-yl)-5-cyano-3,4-dihydroxy-tetrahydrofuran-2-yl]methyl [(2R)-2-[[4-cyano-2-(trifluoromethyl)phenyl]methoxy]-3-octadecoxy-propyl] hydrogen phosphate] | 20.1 µM | 10 µM | 0.553 µM |  |  | 
6 | CCCCCCCCCCCCCCCCCCOC[C@H](COP(=O)(O)OC[C@H]1O[C@@](C#N)(c2ccc3c(N)ncnn23)[C@H](O)[C@@H]1O)OCc1cc(C#N)cc(OC)c1 [Example 106, [(2R,3S,4R,5R)-5-(4-Aminopyrrolo[2,1-f][1,2,4]triazin-7-yl)-5-cyano-3,4-dihydroxy-tetrahydrofuran-2-yl]methyl [(2R)-2-[(3-cyano-5-methoxy-phenyl)methoxy]-3-octadecoxy-propyl] hydrogen phosphate] | 0.871 µM | 10 µM | 0.088 µM |  |  | 
7 | CCCCCCCCCCCCCCCCCCOC[C@H](COP(=O)(O)OC[C@H]1O[C@@](C#N)(c2ccc3c(N)ncnn23)[C@H](O)[C@@H]1O)n1cc(C#N)nn1 [Example 81, ((2R,3S,4R,5R)-5-(4-aminopyrrolo[2,1-f][1,2,4]triazin-7-yl)-5-cyano-3,4-dihydroxytetrahydrofuran-2-yl)methyl ((R)-2-(4-cyano-1H-1,2,3-triazol-1-yl)-3-(octadecyloxy)propyl) hydrogen phosphate] | 31.1 µM | 1.9 µM | 0.068 µM |  |  | 
8 | CCCCCCCCCCCCCCCCCCOC[C@H](COP(=O)(O)OC[C@H]1O[C@@](C#N)(c2ccc3c(N)ncnn23)[C@H](O)[C@@H]1O)OCc1cccc(F)c1 [Example 45, ((2R,3S,4R,5R)-5-(4-aminopyrrolo[2,1-f][1,2,4]triazin-7-yl)-5-cyano-3,4-dihydroxytetrahydrofuran-2-yl)methyl ((R)-2-((3-fluorobenzyl)oxy)-3-(octadecyloxy)propyl) hydrogen phosphate] |  | 0.311 µM |  | 4.42 µM | 0.069 µM | 0.069 µM
9 | CCCCCCCCCCCCCCCCCCOC[C@H](COP(=O)(O)OC[C@H]1O[C@@](C#N)(c2ccc3c(N)ncnn23)[C@H](O)[C@@H]1O)OCc1ccc2ccccc2n1 [Example 92, ((2R,3S,4R,5R)-5-(4-aminopyrrolo[2,1-f][1,2,4]triazin-7-yl)-5-cyano-3,4-dihydroxytetrahydrofuran-2-yl)methyl ((R)-3-(octadecyloxy)-2-(quinolin-2-ylmethoxy)propyl) hydrogen phosphate] | 1.77 µM | 0.12 µM | 0.038 µM |  |  | 
10 | CCCCCCCCCCCCCCCCCCOC[C@H](COP(=O)(O)OC[C@H]1O[C@@](C#N)(c2ccc3c(N)ncnn23)[C@H](O)[C@@H]1O)OCc1cccc(C#N)n1 [Example 107, [(2R,3S,4R,5R)-5-(4-Aminopyrrolo[2,1-f][1,2,4]triazin-7-yl)-5-cyano-3,4-dihydroxy-tetrahydrofuran-2-yl]methyl [(2R)-2-[(6-cyano-2-pyridyl)methoxy]-3-octadecoxy-propyl] hydrogen phosphate] | 0.885 µM | 0.37 µM | 0.08 µM |  |  | 
11 | CCCCCCCCCCCCCCCCCCOC[C@@H](CCc1ccccc1)COP(=O)(O)OC[C@H]1O[C@@](C#N)(c2ccc3c(N)ncnn23)[C@H](O)[C@@H]1O [Example 22, ((2R,3S,4R,5R)-5-(4-aminopyrrolo[2,1-f][1,2,4]triazin-7-yl)-5-cyano-3,4-dihydroxytetrahydrofuran-2-yl)methyl ((R)-2-((octadecyloxy)methyl)-4-phenylbutyl) hydrogen phosphate] |  | 5.23 µM |  | 26.4 µM | 0.16 µM | 0.158 µM
12 | CCCCCCCCCCCCCCCCCCOC[C@H](COP(=O)(O)OC[C@H]1O[C@@](C#N)(c2ccc3c(N)ncnn23)[C@H](O)[C@@H]1O)OCc1ccc(C#N)c(Cl)c1 [Example 23, ((2R,3S,4R,5R)-5-(4-aminopyrrolo[2,1-f][1,2,4]triazin-7-yl)-5-cyano-3,4-dihydroxytetrahydrofuran-2-yl)methyl ((R)-2-((3-chloro-4-cyanobenzyl)oxy)-3-(octadecyloxy)propyl) hydrogen phosphate] |  | 0.459 µM |  | 0.723 µM | 0.03 µM | 0.03 µM
13 | CCCCCCCCCCCCCCCCCCOC[C@H](COP(=O)(O)OC[C@H]1O[C@@](C#N)(c2ccc3c(N)ncnn23)[C@H](O)[C@@H]1O)OCc1cncc(C#N)c1 [Example 75, ((2R,3S,4R,5R)-5-(4-aminopyrrolo[2,1-f][1,2,4]triazin-7-yl)-5-cyano-3,4-dihydroxytetrahydrofuran-2-yl)methyl ((R)-2-((5-cyanopyridin-3-yl)methoxy)-3-(octadecyloxy)propyl) hydrogen phosphate] | 0.195 µM | 0.028 µM | 0.072 µM |  |  | 
14 | CCCCCCCCCCCCCCCCCCOC[C@H](COP(=O)(O)OC[C@H]1O[C@@](C#N)(c2ccc3c(N)ncnn23)[C@H](O)[C@@H]1O)Oc1ccc(C#N)cn1 [Example 76, ((2R,3S,4R,5R)-5-(4-aminopyrrolo[2,1-f][1,2,4]triazin-7-yl)-5-cyano-3,4-dihydroxytetrahydrofuran-2-yl)methyl ((R)-2-((5-cyanopyridin-2-yl)oxy)-3-(octadecyloxy)propyl) hydrogen phosphate] | 0.295 µM | 0.048 µM | 0.031 µM |  |  | 
15 | CCCCCCCC/C=C\CCCCCCCCOC[C@H](COP(=O)(O)OC[C@H]1O[C@@](C#N)(c2ccc3c(N)ncnn23)[C@H](O)[C@@H]1O)OCc1cc(F)cc(C#N)c1 [Example 128, ((2R,3S,4R,5R)-5-(4-aminopyrrolo[2,1-f][1,2,4]triazin-7-yl)-5-cyano-3,4-dihydroxytetrahydrofuran-2-yl)methyl ((R)-2-((3-cyano-5-fluorobenzyl)oxy)-3-(((Z)-octadec-9-en-1-yl)oxy)propyl) hydrogen phosphate] | 0.73 µM |  | 0.002 µM |  |  | 
16 | CCCCCCCCCCCCCCCCCCOC[C@H](COP(=O)(O)OC[C@H]1O[C@@](C#N)(c2ccc3c(N)ncnn23)[C@H](O)[C@@H]1O)Oc1ccc(C#N)c(OCC)c1 [Example 85, ((2R,3S,4R,5R)-5-(4-aminopyrrolo[2,1-f][1,2,4]triazin-7-yl)-5-cyano-3,4-dihydroxytetrahydrofuran-2-yl)methyl ((R)-2-(4-cyano-3-ethoxyphenoxy)-3-(octadecyloxy)propyl) hydrogen phosphate] | 0.143 µM |  | 0.008 µM |  |  | 
17 | CCCCCCCCCCCCCCCCCCOC[C@H](COP(=O)(O)OC[C@H]1O[C@@](C#N)(c2ccc3c(N)ncnn23)[C@H](O)[C@@H]1O)Oc1cccc(OC)n1 [Example 88, ((2R,3S,4R,5R)-5-(4-aminopyrrolo[2,1-f][1,2,4]triazin-7-yl)-5-cyano-3,4-dihydroxytetrahydrofuran-2-yl)methyl ((R)-2-((6-methoxypyridin-2-yl)oxy)-3-(octadecyloxy)propyl) hydrogen phosphate] | 0.201 µM |  | 0.031 µM |  |  | 
18 | CCCCCCCCCCCCCCCCCCOC[C@H](COP(=O)(O)OC[C@H]1O[C@@](C#N)(c2ccc3c(N)ncnn23)[C@H](O)[C@@H]1O)OCc1cc(F)ccc1C#N [Example 51, ((2R,3S,4R,5R)-5-(4-aminopyrrolo[2,1-f][1,2,4]triazin-7-yl)-5-cyano-3,4-dihydroxytetrahydrofuran-2-yl)methyl ((R)-2-((2-cyano-5-fluorobenzyl)oxy)-3-(octadecyloxy)propyl) hydrogen phosphate] |  | 1.65 µM |  | 2.14 µM |  | 
